Test results from PubChem BioAssay (NCI).
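Where inhibition never reached the appropriate level, the endpoint shown equals the highest concentration tested. Otherwise, values were interpolated linearly from a five-concentration, 48-hour dose response in 96-well plates. TGI: total growth inhibition.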

Columns and labels:
Assay in all cases: growth of human tumour cells (NCI), 48 h
[1] = tested on: UO-31 renal
[2] = tested on: DMS 114 small cell lung
[3] = tested on: NCI-H522 lung
[4] = tested on: SR leukemia
[5] = tested on: SF-295 CNS
[6] = tested on: RXF 393 renal
[7] = tested on: NCI-H23 lung
[8] = tested on: U251 CNS
[9] = tested on: HCC-2998 colon
[10] = tested on: UACC-62 melanoma
[11] = tested on: SNB-78 CNS
[12] = tested on: EKVX NSCLC
[13] = tested on: M19-MEL melanoma
[14] = tested on: NCI-H460 lung
[15] = tested on: HOP-18 NSCLC
[16] = tested on: LXFL 529 NSCLC
[17] = tested on: SN12C renal
[18] = tested on: COLO 205 colon
[19] = tested on: A498 renal
[20] = tested on: SK-OV-3 ovarian
[21] = tested on: CAKI-1 renal
[22] = tested on: HL-60(TB) leukemia
[23] = tested on: CCRF-CEM leukemia
[24] = tested on: DLD-1 colon
[25] = tested on: SF-268 CNS
[26] = tested on: SK-MEL-2 melanoma
[27] = tested on: SK-MEL-5 melanoma
[28] = tested on: ACHN renal
[29] = tested on: NCI-H226 lung
[30] = tested on: IGROV1 ovarian
[31] = tested on: TK-10 renal
[32] = tested on: A549 NSCLC
[33] = tested on: RPMI-8226 leukemia
[34] = tested on: HCT-116 colon
[35] = tested on: KM12 colon
[36] = tested on: K-562 leukemia
[37] = tested on: SNB-19 CNS
[38] = tested on: OVCAR-3 ovarian
[39] = tested on: SK-MEL-28 melanoma
[40] = tested on: SF-539 CNS
[41] = tested on: 786-0 renal
[42] = tested on: KM20L2 colon
[43] = tested on: HT29 colon
[44] = tested on: OVCAR-8 ovarian
[45] = tested on: SW-620 colon
[46] = tested on: MALME-3M melanoma
[47] = tested on: SNB-75 CNS
[48] = tested on: UACC-257 melanoma
[49] = tested on: MOLT-4 leukemia
[50] = tested on: DMS 273 small cell lung
[51] = tested on: T-47D breast
[52] = tested on: MDA-MB-435
[53] = tested on: HOP-62 NSCLC
[54] = tested on: MDA-MB-231 breast
[55] = tested on: OVCAR-4 ovarian
[56] = tested on: M14 melanoma
[57] = tested on: MDA-N
[58] = tested on: NCI/ADR-RES ovarian
[59] = tested on: HS 578T breast
[60] = tested on: BT-549 breast
[61] = tested on: OVCAR-5 ovarian
[62] = tested on: HCT-15 colon
[63] = tested on: LOX IMVI melanoma
[64] = tested on: DU-145 prostate
[65] = tested on: MCF7 breast
[66] = tested on: PC-3 prostate
[67] = tested on: HOP-92 NSCLC

`C1CN2CCO[SiH](O1)OCC2` showed a TGI [1] of over 100 µM, a TGI [2] of over 100 µM and a TGI [3] of over 100 µM. The TGI [4] was over 100 µM, the TGI [5] was over 100 µM and the TGI [6] was over 100 µM. For the same compound, the TGI [7] was over 100 µM, the TGI [8] was over 100 µM and the TGI [9] was over 100 µM. It also gave a TGI [10] of over 100 µM, a TGI [11] of over 100 µM and a TGI [12] of over 100 µM. It also gave a TGI [13] of over 100 µM, a TGI [14] of over 100 µM and a TGI [15] of over 100 µM. The TGI [16] was over 100 µM, the TGI [17] was over 100 µM and the TGI [18] was over 100 µM. The TGI [19] was over 100 µM, the TGI [20] was over 100 µM and the TGI [21] was over 100 µM. It also gave a TGI [22] of over 100 µM, a TGI [23] of over 100 µM and a TGI [24] of over 100 µM. It also gave a TGI [25] of over 100 µM, a TGI [26] of over 100 µM and a TGI [27] of over 100 µM. For the same compound, the TGI [28] was over 100 µM, the TGI [29] was over 100 µM and the TGI [30] was over 100 µM. The TGI [31] was over 100 µM, the TGI [32] was over 100 µM and the TGI [33] was over 100 µM. For the same compound, the TGI [34] was over 100 µM, the TGI [35] was over 100 µM and the TGI [36] was over 100 µM. For the same compound, the TGI [37] was over 100 µM, the TGI [38] was over 100 µM and the TGI [39] was over 100 µM. It also gave a TGI [40] of over 100 µM, a TGI [41] of over 100 µM and a TGI [42] of over 100 µM. The TGI [43] was over 100 µM, the TGI [44] was over 100 µM and the TGI [45] was over 100 µM. It also gave a TGI [46] of over 100 µM, a TGI [47] of over 100 µM and a TGI [48] of over 100 µM. It also gave a TGI [49] of over 100 µM and a TGI [50] of over 100 µM.

Compound `COc1ccc(C2C(=O)c3ccc(OC)cc3OC2c2cccnc2)cc1` (centres undefined) has a TGI [1] of over 100 µM, a TGI [3] of over 100 µM and a TGI [51] of over 100 µM. It also gave a TGI [4] of over 100 µM, a TGI [52] of over 100 µM and a TGI [53] of over 100 µM. The TGI [5] was over 100 µM, the TGI [6] was over 100 µM and the TGI [54] was over 100 µM. For the same compound, the TGI [7] was over 100 µM, the TGI [8] was over 100 µM and the TGI [55] was over 100 µM. For the same compound, the TGI [9] was over 100 µM, the TGI [10] was over 100 µM and the TGI [56] was over 100 µM. The TGI [12] was over 100 µM, the TGI [57] was over 100 µM and the TGI [14] was over 100 µM. The TGI [17] was over 100 µM, the TGI [58] was over 100 µM and the TGI [59] was over 100 µM. It also gave a TGI [60] of over 100 µM, a TGI [18] of over 100 µM and a TGI [19] of over 100 µM. It also gave a TGI [20] of over 100 µM, a TGI [21] of over 100 µM and a TGI [22] of over 100 µM. The TGI [23] was over 100 µM, the TGI [25] was over 100 µM and the TGI [26] was over 100 µM. For the same compound, the TGI [27] was over 100 µM, the TGI [28] was over 100 µM and the TGI [29] was over 100 µM. For the same compound, the TGI [30] was over 100 µM, the TGI [31] was over 100 µM and the TGI [32] was over 100 µM. It also gave a TGI [33] of over 100 µM, a TGI [34] of over 100 µM and a TGI [35] of over 100 µM. For the same compound, the TGI [36] was over 100 µM, the TGI [61] was over 100 µM and the TGI [37] was over 100 µM. The TGI [38] was over 100 µM, the TGI [39] was over 100 µM and the TGI [62] was over 100 µM. It also gave a TGI [40] of over 100 µM, a TGI [41] of over 100 µM and a TGI [63] of over 100 µM. For the same compound, the TGI [64] was over 100 µM, the TGI [43] was over 100 µM and the TGI [44] was over 100 µM. It also gave a TGI [45] of over 100 µM, a TGI [46] of over 100 µM and a TGI [47] of over 100 µM. It also gave a TGI [65] of over 100 µM, a TGI [66] of over 100 µM and a TGI [67] of 97.1 µM. It also gave a TGI [48] of over 100 µM and a TGI [49] of over 100 µM.
